In US20050245456A1, “Combination therapy to prevent and treat diarrhea induced by cancer treatment” (Pfizer Inc, priority 2004, published 2005):

Key:
[1] = Phase 1 trial: diarrhea induced by the isothiazole derivative; type: in vivo, human; details: almost all subjects at doses greater than 160 mg/day, within the first few days
Method: Susceptible subjects are encouraged to adhere to a daily schedule of prophylactic anti-diarrheal agents, such as Loperamide, Octreotide, Loperamide, Tamoxifen, a bulking agent, or an anti-estrogen. To treat the diarrhea in these patients, a therapeutically effective amount of 3-(4-Bromo-2,6-difluoro-benzyloxy)-5-[3-(4-pyrrolidin-1-yl-butyl)-ureido]-isothiazole-4-carboxylic acid amide HCl is administered to a patient in need of such therapy, prior to, simultaneously or sequentially with a therapeutically effective amount of Loperamide, Octreotide, Loperamide, Tamoxifen, a bulking agent, or an anti-estrogen.

[2] = cited from earlier work
[3] = patients who experienced this side-effect during a previous course of chemotherapy; Cascinu et al. 1994; cited from earlier work
[4] = test system: MCF-7 breast cancer cells; details: Otto et al. 1996; cited from earlier work

Structure (SMILES): NC(=O)c1c(OCc2c(F)cc(Br)cc2F)nsc1NC(=O)NCCCCN1CCCC1 [3-(4-Bromo-2,6-difluoro-benzyloxy)-5-[3-(4-pyrrolidin-1-yl-butyl)-ureido]-isothiazole-4-carboxylic acid amide]
- diarrhea developed by subjects (CTC grade) [1]: Grade 1 or 2 diarrhea

Structure (SMILES): C[C@@H](O)[C@@H]1NC(=O)[C@H](CCCCN)NC(=O)[C@@H](Cc2c[nH]c3ccccc23)NC(=O)[C@H](Cc2ccccc2)NC(=O)[C@@H](NC(=O)[C@H](N)Cc2ccccc2)CSSC[C@@H](C(=O)N[C@H](CO)[C@@H](C)O)NC1=O [Octreotide]
- treatment of diarrhea after chemotherapy with 5-fluorouracil ([2]; 11 patients with colorectal cancer, Kennedy et al. 1990): encouraging results
- efficacy versus Loperamide in therapy of 5-fluorouracil-induced diarrhea ([2]; randomized trial, Cascinu et al. 1993): more effective than Loperamide
- prevention of diarrhea associated with cisplatin [3]: active in preventing diarrhea

Structure (SMILES): CC/C(=C(\c1ccccc1)c1ccc(OCCN(C)C)cc1)c1ccccc1 [Tamoxifen]
- effect on cell cycle progression [4]: blocks cell cycle progression in G0/G1
